# Patent publication US20240132463A1, “SUBSTITUTED N-(2-(2,6-DIOXOPIPERIDIN-3-YL)-1,3-DIOXOISOINDOLIN-5-YL)ARYLSULFONAMIDE ANALOGS AS MODULATORS OF CEREBLON PROTEIN” (ST. JUDE CHILDREN'S RESEARCH HOSPITAL, INC., priority 2020, published 2024)
# pIC50: −log10 of the molar value.
# Biological target: 6×His-CRBN-DDB1 protein (Homo sapiens (Human), UniProt Q96SW2)
# Assay: CRBN fluorescence polarization assay
# Assay type: binding
# Settings: cereblon binding, class symbols; read-out: CRBN FP IC50
# Procedure: 6×His-CRBN-DDB1 protein (200 nM) and Cy5-O-Len probe (30 nM) were combined in 20 mM HEPES pH 7, 150 mM NaCl, 0.005% Tween-20 assay buffer. […] The plates were incubated in the dark for 1 hour at room temperature and then read on an Envision plate reader (PerkinElmer, Massachusetts, USA).
# Chain of 6×His-CRBN-DDB1 protein (Q96SW2 whole entry): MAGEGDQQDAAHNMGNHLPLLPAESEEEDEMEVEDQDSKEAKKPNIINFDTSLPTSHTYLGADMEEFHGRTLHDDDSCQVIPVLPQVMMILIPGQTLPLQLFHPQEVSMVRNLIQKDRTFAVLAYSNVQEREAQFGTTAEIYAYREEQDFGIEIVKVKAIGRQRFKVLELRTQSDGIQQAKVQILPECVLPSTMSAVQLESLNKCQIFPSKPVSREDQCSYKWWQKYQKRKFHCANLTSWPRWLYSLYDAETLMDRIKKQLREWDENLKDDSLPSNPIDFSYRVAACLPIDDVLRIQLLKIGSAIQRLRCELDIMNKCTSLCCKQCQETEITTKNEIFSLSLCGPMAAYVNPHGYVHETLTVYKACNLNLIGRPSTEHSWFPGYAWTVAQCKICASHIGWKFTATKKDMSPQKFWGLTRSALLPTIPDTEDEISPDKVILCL
# Chain of 6×His-CRBN-DDB1 protein (Q16531 whole entry partner): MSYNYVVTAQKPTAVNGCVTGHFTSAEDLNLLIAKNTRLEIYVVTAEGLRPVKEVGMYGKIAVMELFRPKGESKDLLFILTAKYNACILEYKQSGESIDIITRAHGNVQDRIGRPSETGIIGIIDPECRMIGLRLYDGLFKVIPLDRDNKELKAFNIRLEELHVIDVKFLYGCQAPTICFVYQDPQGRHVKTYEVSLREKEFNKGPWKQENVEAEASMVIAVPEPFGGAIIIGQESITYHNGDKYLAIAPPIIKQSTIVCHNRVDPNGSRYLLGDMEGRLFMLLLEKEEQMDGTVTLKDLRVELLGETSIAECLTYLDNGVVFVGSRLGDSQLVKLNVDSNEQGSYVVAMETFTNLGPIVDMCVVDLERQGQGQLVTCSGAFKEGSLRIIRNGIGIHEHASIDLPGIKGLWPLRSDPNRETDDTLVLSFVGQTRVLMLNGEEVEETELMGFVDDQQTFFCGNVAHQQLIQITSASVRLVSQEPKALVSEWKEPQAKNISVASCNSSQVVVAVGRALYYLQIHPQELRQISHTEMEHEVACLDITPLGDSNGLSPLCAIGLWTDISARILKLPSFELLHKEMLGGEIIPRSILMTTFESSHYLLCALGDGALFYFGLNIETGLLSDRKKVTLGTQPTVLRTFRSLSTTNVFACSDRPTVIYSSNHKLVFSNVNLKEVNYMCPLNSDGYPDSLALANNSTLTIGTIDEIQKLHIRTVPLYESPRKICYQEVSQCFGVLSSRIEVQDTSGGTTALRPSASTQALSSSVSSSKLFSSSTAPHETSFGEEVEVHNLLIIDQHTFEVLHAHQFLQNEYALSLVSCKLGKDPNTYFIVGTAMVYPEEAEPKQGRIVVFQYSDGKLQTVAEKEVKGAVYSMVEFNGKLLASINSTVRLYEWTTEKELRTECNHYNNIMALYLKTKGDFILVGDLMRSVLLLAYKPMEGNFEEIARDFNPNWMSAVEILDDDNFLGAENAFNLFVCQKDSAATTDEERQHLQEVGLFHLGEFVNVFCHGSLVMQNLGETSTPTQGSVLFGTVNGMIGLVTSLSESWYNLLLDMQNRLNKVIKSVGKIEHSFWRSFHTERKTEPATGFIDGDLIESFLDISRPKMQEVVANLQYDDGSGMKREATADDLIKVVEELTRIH
row,pIC50,Structure (SMILES)
1,> 6.00,"O=C1CCC(N2Cc3cc(NS(=O)(=O)c4ccccc4C(F)(F)F)ccc3C2=O)C(=O)N1 (stereo not shown) [Compound 44, N-(2-(2,6-dioxopiperidin-3-yl)-1-oxoisoindolin-5-yl)-2-(trifluoromethyl)benzenesulfonamide]"
2,> 6.00,"O=C1CCC(N2Cc3cc(NS(=O)(=O)c4cccc(C(F)(F)F)c4)ccc3C2=O)C(=O)N1 (stereo not shown) [Compound 50, N-(2-(2,6-dioxopiperidin-3-yl)-1-oxoisoindolin-5-yl)-3-(trifluoromethyl)benzenesulfonamide]"
3,> 6.00,"Cc1ccc(S(=O)(=O)Nc2ccc3c(c2)CN(C2CCC(=O)NC2=O)C3=O)cc1Cl (stereo not shown) [Compound 52, 3-chloro-N-(2-(2,6-dioxopiperidin-3-yl)-1-oxoisoindolin-5-yl)-4-methylbenzenesulfonamide]"
4,> 6.00,"O=C1CCC(N2Cc3ccc(NS(=O)(=O)c4cccc(OC(F)(F)F)c4)cc3C2=O)C(=O)N1 (stereo not shown) [Compound 27, N-(2-(2,6-dioxopiperidin-3-yl)-3-oxoisoindolin-5-yl)-3-(trifluoromethoxy)benzenesulfonamide]"
5,> 6.00,"CC(C)(C)c1ccc(S(=O)(=O)Nc2ccc3c(c2)CN(C2CCC(=O)NC2=O)C3=O)cc1 (stereo not shown) [Compound 46, 4-(tert-butyl)-N-(2-(2,6-dioxopiperidin-3-yl)-1-oxoisoindolin-5-yl)benzenesulfonamide]"
6,> 6.00,"O=C1CCC(N2Cc3cc(NS(=O)(=O)c4ccc(F)c(Cl)c4)ccc3C2=O)C(=O)N1 (stereo not shown) [Compound 49, 3-chloro-N-(2-(2,6-dioxopiperidin-3-yl)-1-oxoisoindolin-5-yl)-4-fluorobenzenesulfonamide]"
7,> 6.00,Cc1ccc(F)c(S(=O)(=O)Nc2ccc3c(c2)CN(C2CCC(=O)NC2=O)C3=O)c1 (stereo not shown) [Compound 53]
8,> 6.00,"Cc1ccc(S(=O)(=O)Nc2ccc3c(c2)C(=O)N(C2CCC(=O)NC2=O)C3)cc1 (stereo not shown) [Compound 25, N-(2-(2,6-dioxopiperidin-3-yl)-3-oxoisoindolin-5-yl)-4-methylbenzenesulfonamide]"
9,> 6.00,"COc1cccc(S(=O)(=O)Nc2ccc3c(c2)C(=O)N(C2CCC(=O)NC2=O)C3)c1 (stereo not shown) [Compound 29, N-(2-(2,6-dioxopiperidin-3-yl)-3-oxoisoindolin-5-yl)-3-methoxybenzenesulfonamide]"
10,> 6.00,"COc1cccc(S(=O)(=O)Nc2ccc3c(c2)CN(C2CCC(=O)NC2=O)C3=O)c1 (stereo not shown) [Compound 47, N-(2-(2,6-dioxopiperidin-3-yl)-1-oxoisoindolin-5-yl)-3-methoxybenzenesulfonamide]"
11,> 6.00,"COc1ccc(S(=O)(=O)Nc2ccc3c(c2)CN(C2CCC(=O)NC2=O)C3=O)cc1 (stereo not shown) [Compound 40, N-(2-(2,6-dioxopiperidin-3-yl)-1-oxoisoindolin-5-yl)-4-methoxybenzenesulfonamide]"
12,> 6.00,"Cc1cccc(S(=O)(=O)Nc2ccc3c(c2)CN(C2CCC(=O)NC2=O)C3=O)c1 (stereo not shown) [Compound 45, N-(2-(2,6-dioxopiperidin-3-yl)-1-oxoisoindolin-5-yl)-3-methylbenzenesulfonamide]"
13,> 6.00,"Cc1ccc(S(=O)(=O)Nc2ccc3c(c2)C(=O)N(C2CCC(=O)NC2=O)C3)cc1Cl (stereo not shown) [Compound 33, 3-chloro-N-(2-(2,6-dioxopiperidin-3-yl)-3-oxoisoindolin-5-yl)-4-methylbenzenesulfonamide]"
14,> 6.00,"O=C1CCC(N2Cc3ccc(NS(=O)(=O)c4cccc(C(F)(F)F)c4)cc3C2=O)C(=O)N1 (stereo not shown) [Compound 32, N-(2-(2,6-dioxopiperidin-3-yl)-3-oxoisoindolin-5-yl)-3-(trifluoromethyl)benzenesulfonamide]"
15,> 6.00,"Cc1ccccc1S(=O)(=O)Nc1ccc2c(c1)C(=O)N(C1CCC(=O)NC1=O)C2 (stereo not shown) [Compound 35, N-(2-(2,6-dioxopiperidin-3-yl)-3-oxoisoindolin-5-yl)-2-methylbenzenesulfonamide]"

# Second part, the molecule before the results:
row,Structure (SMILES),pIC50
1,"Cc1cc(S(=O)(=O)Nc2ccc3c(c2)C(=O)N(C2CCC(=O)NC2=O)C3=O)c(C)o1 (stereo not shown) [Compound 84, N-(2-(2,6-dioxopiperidin-3-yl)-1,3-dioxoisoindolin-5-yl)-2,5-dimethylfuran-3-sulfonamide]",> 6.00
2,"N#Cc1ccc(S(=O)(=O)Nc2ccc3c(c2)C(=O)N(C2CCC(=O)NC2=O)C3=O)cc1 (stereo not shown) [Compound 64, 4-cyano-N-(2-(2,6-dioxopiperidin-3-yl)-1,3-dioxoisoindolin-5-yl)benzenesulfonamide]",> 6.00
3,"COc1ccc(S(=O)(=O)Nc2ccc3c(c2)C(=O)N(C2CCC(=O)NC2=O)C3=O)cc1 (stereo not shown) [Compound 14, N-(2-(2,6-dioxopiperidin-3-yl)-1,3-dioxoisoindolin-5-yl)-4-methoxybenzenesulfonamide]",> 6.00
4,"Cc1ccc(F)c(S(=O)(=O)Nc2ccc3c(c2)C(=O)N(C2CCC(=O)NC2=O)C3)c1 (stereo not shown) [Compound 34, N-(2-(2,6-dioxopiperidin-3-yl)-3-oxoisoindolin-5-yl)-2-fluoro-5-methylbenzenesulfonamide]",> 6.00
5,"O=C1CCC(N2Cc3cc(NS(=O)(=O)c4ccc(-c5ccccc5)cc4)ccc3C2=O)C(=O)N1 (stereo not shown) [Compound 51, N-(2-(2,6-dioxopiperidin-3-yl)-1-oxoisoindolin-5-yl)-[1,1′-bipheny]-4-sulfonamide]",> 6.00
6,"O=C1CCC(N2C(=O)c3ccc(NS(=O)(=O)c4ccccc4Br)cc3C2=O)C(=O)N1 (stereo not shown) [Compound 65, 2-bromo-N-(2-(2,6-dioxopiperidin-3-yl)-1,3-dioxoisoindolin-5-yl)benzenesulfonamide]",> 6.00
7,"O=C1CCC(N2Cc3ccc(NS(=O)(=O)c4ccccc4OC(F)(F)F)cc3C2=O)C(=O)N1 (stereo not shown) [Compound 37, N-(2-(2,6-dioxopiperidin-3-yl)-3-oxoisoindolin-5-yl)-2-(trifluoromethoxy)benzenesulfonamide]",> 6.00
8,"O=C1CCC(N2C(=O)c3ccc(NS(=O)(=O)c4cccc(Cl)c4Cl)cc3C2=O)C(=O)N1 (stereo not shown) [Compound 88, 2,3-dichloro-N-(2-(2,6-dioxopiperidin-3-yl)-1,3-dioxoisoindolin-5-yl)benzenesulfonamide]",> 6.00
9,"O=C1CCC(N2Cc3ccc(NS(=O)(=O)c4ccccc4C(F)(F)F)cc3C2=O)C(=O)N1 (stereo not shown) [Compound 28, N-(2-(2,6-dioxopiperidin-3-yl)-3-oxoisoindolin-5-yl)-2-(trifluoromethyl)benzenesulfonamide]",> 6.00
10,"CC(C)c1ccc(S(=O)(=O)Nc2ccc3c(c2)C(=O)N(C2CCC(=O)NC2=O)C3)cc1 (stereo not shown) [Compound 30, N-(2-(2,6-dioxopiperidin-3-yl)-3-oxoisoindolin-5-yl)-4-isopropylbenzenesulfonamide]",> 6.00
11,"CC(=O)Nc1ccc(S(=O)(=O)Nc2ccc3c(c2)C(=O)N(C2CCC(=O)NC2=O)C3=O)cc1 (stereo not shown) [Compound 13, N-(4-(N-(2-(2,6-dioxopiperidin-3-yl)-1,3-dioxoisoindolin-5-yl)sulfamoyl)phenyl)acetamide]",> 6.00
12,"O=C1CCC(N2C(=O)c3ccc(NS(=O)(=O)c4ccc5ncsc5c4)cc3C2=O)C(=O)N1 (stereo not shown) [Compound 86, N-(2-(2,6-dioxopiperidin-3-yl)-1,3-dioxoisoindolin-5-yl)benzo[d]thiazole-6-sulfonamide]",> 6.00
13,"Cc1cccc(S(=O)(=O)Nc2ccc3c(c2)C(=O)N(C2CCC(=O)NC2=O)C3=O)c1 (stereo not shown) [Compound 19, N-(2-(2,6-dioxopiperidin-3-yl)-1,3-dioxoisoindolin-5-yl)-3-methylbenzenesulfonamide]",> 6.00
14,"O=C1CCC(N2Cc3ccc(NS(=O)(=O)c4ccc(C(F)(F)F)cc4)cc3C2=O)C(=O)N1 (stereo not shown) [Compound 26, N-(2-(2,6-dioxopiperidin-3-yl)-3-oxoisoindolin-5-yl)-4-(trifluoromethyl)benzenesulfonamide]",> 6.00
15,"O=C1CCC(N2Cc3cc(NS(=O)(=O)c4ccccc4OC(F)(F)F)ccc3C2=O)C(=O)N1 (stereo not shown) [Compound 56, N-(2-(2,6-dioxopiperidin-3-yl)-1-oxoisoindolin-5-yl)-2-(trifluoromethoxy)benzenesulfonamide]",> 6.00
16,"O=C1CCC(N2C(=O)c3ccc(NS(=O)(=O)c4ccc(F)cc4F)cc3C2=O)C(=O)N1 (stereo not shown) [Compound 74, N-(2-(2,6-dioxopiperidin-3-yl)-1,3-dioxoisoindolin-5-yl)-2,4-difluorobenzenefylfonamide]",5.00 to 6.00
17,"O=C1CCC(N2Cc3ccc(NS(=O)(=O)c4ccc(F)cc4)cc3C2=O)C(=O)N1 (stereo not shown) [Compound 23, N-(2-(2,6-dioxopiperidin-3-yl)-3-oxoisoindolin-5-yl)-4-fluorobenzenesulfonamide]",> 6.00
18,"O=C1CCC(N2C(=O)c3ccc(NS(=O)(=O)c4cc(F)c(Cl)cc4F)cc3C2=O)C(=O)N1 (stereo not shown) [Compound 66, 4-chloro-N-(2-(2,6-dioxopiperidin-3-yl)-1,3-dioxoisoindolin-5-yl)-2,5-difluorobenzenesulfonamide]",> 6.00
19,"O=C1CCC(N2C(=O)c3ccc(NS(=O)(=O)c4ccc5c(c4)OCCO5)cc3C2=O)C(=O)N1 (stereo not shown) [Compound 59, N-(2-(2,6-dioxopiperidin-3-yl)-1,3-dioxoisoindolin-5-yl)-2,3-dihydrobenzo[b][1,4]dioxine-6-sulfonamide]",> 6.00
20,"O=C1CCC(N2C(=O)c3ccc(NS(=O)(=O)c4ccc(F)c(F)c4)cc3C2=O)C(=O)N1 (stereo not shown) [Compound 11, N-(2-(2,6-dioxopiperidin-3-yl)-1,3-dioxoisoindolin-5-yl)-3,4-difluorobenzenesulfonamide]",> 6.00
21,"Cc1ccc(S(=O)(=O)Nc2ccc3c(c2)C(=O)N(C2CCC(=O)NC2=O)C3=O)cc1C (stereo not shown) [Compound 93, N-(2-(2,6-dioxopiperidin-3-yl)-1,3-dioxoisoindolin-5-yl)-3,4-dimethylbenzenesulfonamide]",> 6.00
22,"O=C1CCC(N2C(=O)c3ccc(NS(=O)(=O)c4ccc(-c5ccccc5)cc4)cc3C2=O)C(=O)N1 (stereo not shown) [Compound 62, N-(2-(2,6-dioxopiperidin-3-yl)-1,3-dioxoisoindolin-5-yl)(1,1′-biphenyl]-4-sulfonamide]",> 6.00
